Measured values as given in ChEMBL document CHEMBL3856287, “Synthesis of novel tetrazole derivatives and evaluation of their antifungal activity” (Bioorg Med Chem, 2016).
Values after ≈ are worked out from the molar mass of the structure shown.

Key:
[1] = Antifungal activity against Fusarium sambucinum MF1 assessed as radial growth inhibition at 64 ug/ml after 5 to 7 days relative to control; type: functional
Candida albicans [2] = assay: Antifungal activity against Candida albicans ATCC 90028 assessed as growth inhibition after 48 hrs in presence of osmotic protector 0.8 M sorbitol by broth microdilution method; type: functional; details: ATCC 90028, 48 h
Candida albicans [3] = assay: Antifungal activity against Candida albicans ATCC 90028 assessed as growth inhibition at 1 ug/ml after 48 hrs by broth microdilution method relative to control; type: functional; details: ATCC 90028, 48 h, read-out: GI
Candida albicans [4] = assay: Antifungal activity against Candida albicans ATCC 90028 assessed as growth inhibition at 4 ug/ml after 48 hrs by broth microdilution method relative to control; type: functional; details: ATCC 90028, 48 h, read-out: GI
Candida albicans [5] = assay: Fungicidal activity against Candida albicans ATCC 90028 at MIC after 7 days in presence of osmotic protector 0.8 M sorbitol by broth microdilution method; type: functional
[6] = Antifungal activity against Colletotrichum coccodes MC1 assessed as radial growth inhibition at 64 ug/ml after 5 to 7 days relative to control; type: functional
Aspergillus niger [7] = assay: Antifungal activity against Aspergillus niger ATCC 16404 assessed as radial growth inhibition at 64 ug/ml after 5 to 7 days relative to control; type: functional; details: read-out: GI
Candida albicans [8] = assay: Antifungal activity against Candida albicans ATCC 90028 assessed as growth inhibition at 0.5 ug/ml after 48 hrs by broth microdilution method relative to control; type: functional; details: ATCC 90028, 48 h, read-out: GI
Candida albicans [9] = assay: Antifungal activity against Candida albicans ATCC 90028 after 18 to 48 hrs in presence of 80 ug/ml fluconazole by checkerboard assay; type: functional
Candida albicans [10] = assay: Antifungal activity against Candida albicans ATCC 90028 assessed as growth inhibition after 18 to 48 hrs in presence of 1.25 ug/ml fluconazole by checkerboard assay; type: functional
Candida albicans [11] = assay: Antifungal activity against Candida albicans ATCC 90028 assessed as growth inhibition at 8 ug/ml after 48 hrs by broth microdilution method relative to control; type: functional; details: ATCC 90028, 48 h, read-out: GI
Candida albicans [12] = assay: Antifungal activity against Candida albicans ATCC 90028 assessed as growth inhibition at 2 ug/ml after 48 hrs by broth microdilution method relative to control; type: functional; details: ATCC 90028, 48 h, read-out: GI
Candida albicans [13] = assay: Antifungal activity against Candida albicans ATCC 90028 after 18 to 48 hrs in presence of 1.25 ug/ml fluconazole by checkerboard assay; type: functional
[14] = Toxicity in last instar larval stage of Galleria mellonella assessed as survival at 16 ug/ml after 96 hrs
Candida albicans [15] = assay: Antifungal activity against Candida albicans ATCC 90028 assessed as growth inhibition at 16 ug/ml after 48 hrs by broth microdilution method relative to control; type: functional; details: ATCC 90028, 48 h, read-out: GI
Candida albicans [16] = assay: Antifungal activity against Candida albicans ATCC 90028 assessed as growth inhibition after 7 days in presence of osmotic protector 0.8 M sorbitol by broth microdilution method; type: functional; details: ATCC 90028, 168 h
Candida albicans [17] = assay: Antifungal activity against Candida albicans ATCC 90028 after 18 to 48 hrs in presence of 2.5 ug/ml fluconazole by checkerboard assay; type: functional
Candida albicans [18] = assay: Antifungal activity against Candida albicans ATCC 90028 assessed as growth inhibition after 48 hrs by broth microdilution method; type: functional; details: ATCC 90028, 48 h
[19] = Antifungal activity against Fusarium oxysporum MF5 assessed as radial growth inhibition at 64 ug/ml after 5 to 7 days relative to control; type: functional
Candida albicans [20] = assay: Antifungal activity against Candida albicans ATCC 90028 after 18 to 48 hrs in presence of 40 ug/ml fluconazole by checkerboard assay; type: functional
Candida albicans [21] = assay: Antifungal activity against Candida albicans ATCC 90028 after 18 to 48 hrs in presence of 5 ug/ml fluconazole by checkerboard assay; type: functional
Candida albicans [22] = assay: Antifungal activity against Candida albicans ATCC 90028 after 18 to 48 hrs in presence of 10 ug/ml fluconazole by checkerboard assay; type: functional
Candida albicans [23] = assay: Antifungal activity against Candida albicans ATCC 90028 after 18 to 48 hrs in presence of 20 ug/ml fluconazole by checkerboard assay; type: functional
Candida albicans [24] = assay: Antifungal activity against Candida albicans ATCC 90028 assessed as growth inhibition at 0.125 ug/ml after 48 hrs by broth microdilution method relative to control; type: functional; details: ATCC 90028, 48 h, read-out: GI
Candida albicans [25] = assay: Antifungal activity against Candida albicans ATCC 90028 assessed as growth inhibition at 0.0313 ug/ml after 48 hrs by broth microdilution method relative to control; type: functional; details: ATCC 90028, 48 h, read-out: GI
Candida albicans [26] = assay: Antifungal activity against Candida albicans ATCC 90028 assessed as growth inhibition at 0.25 ug/ml after 48 hrs by broth microdilution method relative to control; type: functional; details: ATCC 90028, 48 h, read-out: GI
Candida albicans [27] = assay: Antifungal activity against Candida albicans ATCC 90028 assessed as growth inhibition at 0.0625 ug/ml after 48 hrs by broth microdilution method relative to control; type: functional; details: ATCC 90028, 48 h, read-out: GI
[28] = Toxicity in last instar larval stage of Galleria mellonella assessed as decrease in survival at 0.33% after 96 hrs
[29] = Antifungal activity against Fusarium sambucinum MF1 assessed as radial growth inhibition at 32 ug/ml after 5 to 7 days relative to control; type: functional
[30] = Antifungal activity against Colletotrichum coccodes MC1 assessed as radial growth inhibition at 32 ug/ml after 5 to 7 days relative to control; type: functional
Candida albicans [31] = assay: Fungicidal activity against Candida albicans ATCC 90028 after 48 hrs by broth microdilution method; type: functional; details: ATCC 90028, 48 h
Aspergillus niger [32] = assay: Antifungal activity against Aspergillus niger ATCC 16404 assessed as radial growth inhibition at 32 ug/ml after 5 to 7 days relative to control; type: functional; details: read-out: GI
[33] = Antifungal activity against Fusarium oxysporum MF5 assessed as radial growth inhibition at 32 ug/ml after 5 to 7 days relative to control; type: functional
Candida albicans [34] = assay: Antifungal activity against Candida albicans ATCC 90028 assessed as fractional inhibitory concentration after 18 to 48 hrs in presence of fluconazole by checkerboard assay; type: functional
Candida albicans [35] = assay: Antifungal activity against Candida albicans ATCC 90028 assessed as fractional inhibitory concentration index after 18 to 48 hrs in presence of fluconazole by checkerboard assay; type: functional
Candida albicans [36] = assay: Fungicidal activity against Candida albicans ATCC 90028 at MIC after 48 hrs in presence of osmotic protector 0.8 M sorbitol by broth microdilution method; type: functional
[37] = Antifungal activity against Fusarium sambucinum MF1 assessed as radial growth inhibition at 16 ug/ml after 5 to 7 days relative to control; type: functional
Aspergillus niger [38] = assay: Antifungal activity against Aspergillus niger ATCC 16404 assessed as radial growth inhibition at 16 ug/ml after 5 to 7 days relative to control; type: functional; details: read-out: GI
[39] = Antifungal activity against Colletotrichum coccodes MC1 assessed as radial growth inhibition at 16 ug/ml after 5 to 7 days relative to control; type: functional
[40] = Antifungal activity against Fusarium oxysporum MF5 assessed as radial growth inhibition at 16 ug/ml after 5 to 7 days relative to control; type: functional

Row | Compound | growth inhibition (GI) [1] [%] | inhibition of growth at 1 µg/mL (Candida albicans [3]) [%] | inhibition of growth at 4 µg/mL (Candida albicans [4]) [%] | growth inhibition (GI) [6] [%] | inhibition of growth at 64 µg/mL (Aspergillus niger [7]) [%] | inhibition of growth at 0.5 µg/mL (Candida albicans [8]) [%] | inhibition of growth at 8 µg/mL (Candida albicans [11]) [%] | inhibition of growth at 2 µg/mL (Candida albicans [12]) [%] | inhibition of growth at 16 µg/mL (Candida albicans [15]) [%] | growth inhibition (GI) [19] [%] | inhibition of growth at 0.125 µg/mL (Candida albicans [24]) [%] | inhibition of growth at 0.0313 µg/mL (Candida albicans [25]) [%] | inhibition of growth at 0.25 µg/mL (Candida albicans [26]) [%] | inhibition of growth at 0.0625 µg/mL (Candida albicans [27]) [%] | also measured
1 | Clc1ccccc1-c1nnn(CCCSc2nc3ccccc3o2)n1 | 14.5 | 99.1 | 99.2 | 33.4 | 6 | 98.9 | 99.2 | 99.1 | 99.1 | 0 | – | – | – | – | MIC (Candida albicans [2]): 1 µg/mL; Activity (Candida albicans [5]): 97%; Activity (Candida albicans [9]): 100%; MIC (Candida albicans [10]): 1.25 µg/mL; Activity (Candida albicans [13]): 100%; survival at 96 h [14]: 100%; MIC (Candida albicans [16]): 1 µg/mL; Activity (Candida albicans [17]): 100%; MIC (Candida albicans [18]): > 16 µg/mL; Activity (Candida albicans [20]): 100%; Activity (Candida albicans [21]): 100%; Activity (Candida albicans [22]): 100%; Activity (Candida albicans [23]): 100%
2 | Clc1ccccc1-c1nnn(CCCSc2nc3ccccc3s2)n1 | 5 | 98.7 | 98.7 | 16.7 | 0 | 98.6 | 98.6 | 98 | 98.8 | 0 | 99 | 98.8 | 98.7 | 98.9 | –
3 | C[S+](C)[O-] [DIMETHYL SULFOXIDE] | – | – | – | – | – | – | – | – | – | – | – | – | – | – | Activity [28]: Non-Toxic
4 | OC(Cn1cncn1)(Cn1cncn1)c1ccc(F)cc1F [FLUCONAZOLE] | – | – | – | – | – | – | – | – | – | – | – | – | – | – | growth inhibition (GI) [29]: 67.7%; growth inhibition (GI) [30]: 100%; MFC (Candida albicans [31]): 0.5 µg/mL (≈ 1.63 µM); inhibition of growth at 32 µg/mL (Aspergillus niger [32]): 52.9%; MIC (Candida albicans [18]): 0.25 µg/mL (≈ 0.816 µM); growth inhibition (GI) [33]: 17.6%
5 | Cc1ccc(-c2nnn(CCCSc3nc4ccccc4s3)n2)cc1 | 0 | 98.9 | 98.9 | 33.4 | 3 | 98.7 | 99 | 98.6 | 98.8 | 0 | 98.8 | 98.8 | 98.6 | 98.8 | –
6 | Clc1ccc(-c2nnn(CCCSc3nc4ccccc4s3)n2)cc1 | 5 | – | – | 36.7 | 0 | – | – | – | – | 0 | – | – | – | – | –
7 | Cc1ccc(-c2nnn(CCCSc3nc4ccccc4o3)n2)cc1 | 16 | – | – | 43.4 | 11.8 | – | – | – | – | 0 | – | – | – | – | –
8 | c1ccc(-c2nnn(CCCSc3nc4ccccc4s3)n2)cc1 | 13 | – | – | 23.4 | 4.4 | – | – | – | – | 0 | – | – | – | – | –
9 | c1ccc(-c2nnn(CCCSc3nc4ccccc4o3)n2)cc1 | 27 | – | – | 43.4 | 20.6 | – | – | – | – | 6 | – | – | – | – | –
10 | Clc1ccc(-c2nnn(CCCSc3nc4ccccc4o3)n2)cc1 | 14.5 | 99.3 | 98.7 | 46.7 | 11.8 | 99.4 | 99.4 | 99.5 | 99.2 | 4 | 99.1 | 99 | 99.2 | 99.1 | MIC (Candida albicans [2]): 1 µg/mL; Ratio (Candida albicans [34]): 0.08; Activity (Candida albicans [5]): 100%; Activity (Candida albicans [9]): 100%; MIC (Candida albicans [10]): 1.25 µg/mL; Activity (Candida albicans [13]): 100%; survival at 96 h [14]: 100%; fractional inhibitory concentration index (FICI) (Candida albicans [35]): 5.08; MIC (Candida albicans [16]): 1 µg/mL; Activity (Candida albicans [17]): 100%; MIC (Candida albicans [18]): > 16 µg/mL; Activity (Candida albicans [36]): 100%; Activity (Candida albicans [20]): 100%; Activity (Candida albicans [21]): 99%; Activity (Candida albicans [22]): 99%; Activity (Candida albicans [23]): 98%
11 | O=S(=O)(CCn1nnc(-c2ccc(Cl)cc2)n1)c1ccccc1 | 1.8 | 99.4 | 99.4 | 18.4 | 11.2 | 99.4 | 99.5 | 99.4 | – | 1.7 | 99.3 | 99 | 99.3 | – | –
12 | O=S(=O)(CCn1nnc(-c2ccccc2)n1)c1ccccc1 | 14.5 | 99 | 98.9 | 41.1 | 18.5 | 98.9 | 99.1 | 99 | 99.1 | 17.7 | 98.7 | 99.1 | 99 | 99 | –
13 | O=S(=O)(CCn1nnc(-c2ccccc2Cl)n1)c1ccccc1 | 35.6 | 98.2 | 97.8 | 43.4 | 17.1 | 98.2 | 98 | 97.9 | 98.5 | 31.2 | 97.8 | 98.6 | 98.1 | 98.4 | –
14 | C[C@@H]1[C@H](O)[C@@H](C)/C=C/C=C/C=C/C=C/C=C/C=C/C=C/[C@H](O[C@@H]2O[C@H](C)[C@@H](O)[C@H](N)[C@@H]2O)C[C@@H]2O[C@](O)(C[C@@H](O)C[C@@H](O)[C@H](O)CC[C@@H](O)C[C@@H](O)CC(=O)O[C@H]1C)C[C@H](O)[C@H]2C(=O)O [AMPHOTERICIN B] | – | – | – | – | – | – | – | – | – | – | – | – | – | – | growth inhibition (GI) [37]: 86%; inhibition of growth at 16 µg/mL (Aspergillus niger [38]): 100%; growth inhibition (GI) [39]: 86.7%; growth inhibition (GI) [40]: 77%
